The record followed here is PubChem BioAssay AID278 (DTP/NCI, 2004).

The test system of the assay is nude mice, A549 intrarenal xenograft, tumor weight change. Description: NCI In Vivo Anticancer Drug Screen. Data for tumor model A549 Human Adenocarcinoma of Lung with characteristics of Type II Alveolar Epithelial cells (intrarenal inoculation) in NU/NU BALB/C (nude) mice. The settings on record: endpoint: mean tumor weight change, higher = larger tumour. On the procedure:
The antitumor activity of compounds was measured in mice bearing transplantable tumors. Survival or tumor size were measured and the results are expressed as the measurement made in the treated group (T) divided by the measurement made in the vehicle treated control group (C). The tumor model used in this assay is A549 Human Adenocarcinoma of Lung with characteristics of Type II Alveolar Epithelial cells (intrarenal inoculation) in NU/NU BALB/C (nude) mice

The mark [1] stands for this setting: dose: 150.0 mg/kg/injection, schedule: Q04DX003 (ip), vehicle: saline with Tween-80.
Setting [2] is: dose: 300.0 mg/kg/injection, schedule: Q04DX003 (ip), vehicle: saline with Tween-80.
The mark [3] stands for this setting: dose: 150.0 mg/kg/injection, schedule: Q04DX003 (ip), vehicle: Klucel (hydroxypropylcellulose) (HPC).
Setting [4] is: dose: 300.0 mg/kg/injection, schedule: Q04DX003 (ip), vehicle: Klucel (hydroxypropylcellulose) (HPC).
Setting [5] is: dose: 600.0 mg/kg/injection, schedule: Q04DX003 (ip), vehicle: Klucel (hydroxypropylcellulose) (HPC).
Setting [6] is: dose: 100.0 micrograms/kg/injection, schedule: Q04DX003 (ip), vehicle: saline.
[7] abbreviates: dose: 400.0 micrograms/kg/injection, schedule: Q04DX003 (ip), vehicle: saline.
Where [8] appears, read: dose: 50.0 mg/kg/injection, schedule: Q04DX003 (ip), vehicle: saline.
Where [9] appears, read: dose: 12.5 mg/kg/injection, schedule: Q04DX003 (ip), vehicle: saline with Tween-80.
The mark [10] stands for this setting: dose: 25.0 mg/kg/injection, schedule: Q04DX003 (ip), vehicle: saline with Tween-80.

Values joined by “and” are separate entries in the source; they are usually repeats but may differ in a detail not shown here. Equal values may be shown once. Inconclusive results are not listed.

For the compound `C=CCNC(=O)c1ccccc1SC(C)=O`, the T/C was 104 % of control (dose: 75.0 mg/kg/injection, schedule: Q04DX003 (ip), vehicle: saline with Tween-80); 94 % of control under setting [1]; 96 % of control under setting [2]; 61 % of control (dose: 450.0 mg/kg/injection, schedule: Q04DX003 (ip), vehicle: saline with Tween-80).
In the case of `O=C1CC2(C(=O)N1CN1CCOCC1)c1ccccc1-c1ccccc12`, the T/C runs as follows: under setting [3], 36 % of control; (dose: 216.0 mg/kg/injection, schedule: Q04DX003 (ip), vehicle: Klucel (hydroxypropylcellulose) (HPC)) 21 % of control; under setting [4], 28 % of control; (dose: 360.0 mg/kg/injection, schedule: Q04DX003 (ip), vehicle: Klucel (hydroxypropylcellulose) (HPC)) 23 % of control; under setting [5], 11 % of control.
On to `CCOC1NC(=O)Oc2ccccc21` (stereo not given), for which the T/C reads like this: under setting [3], 43 % of control; under setting [5], 54 % of control.
For `Nc1ccn([C@@H]2C=C(CO)[C@@H](O)[C@H]2O)c(=O)n1`, the T/C is, setting by setting: (dose: 0.67 mg/kg/injection, schedule: Q01DX009 (ip), vehicle: saline) 58 % of control; (dose: 1.0 mg/kg/injection, schedule: Q01DX009 (ip), vehicle: saline) 20 % of control and 40 % of control; (dose: 1.5 mg/kg/injection, schedule: Q01DX009 (ip), vehicle: saline) -59 % of control; (dose: 2.0 mg/kg/injection, schedule: Q01DX009 (ip), vehicle: saline) 8 % of control.
Consider `Nc1cc2c(cc1Br)-c1c(C(=O)O)cccc1C2O` (stereo not given), for which the T/C is 74 % of control (dose: 150.0 mg/kg/injection, schedule: Q04DX003 (ip), vehicle: sodium bicarbonate); 78 % of control (dose: 300.0 mg/kg/injection, schedule: Q04DX003 (ip), vehicle: sodium bicarbonate); 68 % of control (dose: 600.0 mg/kg/injection, schedule: Q04DX003 (ip), vehicle: sodium bicarbonate); 56 % of control (dose: 1200.0 mg/kg/injection, schedule: Q04DX003 (ip), vehicle: sodium bicarbonate).
With `CC1=C(C(N)=O)C(c2ccccc2)NC(=S)N1` (stereo not given), the T/C reads like this: (dose: 37.5 mg/kg/injection, schedule: Q04DX003 (ip), vehicle: Klucel (hydroxypropylcellulose) (HPC)) 66 % of control; (dose: 75.0 mg/kg/injection, schedule: Q04DX003 (ip), vehicle: Klucel (hydroxypropylcellulose) (HPC)) 92 % of control; under setting [3], 83 % of control; under setting [4], 181 % of control.
Regarding `CNC(=O)/C=C/C1=CN2C(=O)c3ccc(C)c(O)c3NC(OC)C2C1` (stereo not given), the T/C runs as follows: under setting [6], 1 % of control; (dose: 200.0 micrograms/kg/injection, schedule: Q04DX003 (ip), vehicle: saline) 20 % of control; under setting [7], 29 % of control; (dose: 800.0 micrograms/kg/injection, schedule: Q04DX003 (ip), vehicle: saline) -17 % of control.
On to `O=C1CN(CO)C(=O)N1CO`, for which the T/C was 172 % of control under setting [8] and 120 % of control (dose: 400.0 mg/kg/injection, schedule: Q04DX003 (ip), vehicle: saline).
As for `COc1ccc(N=N/N=c2\sc3cc(OC)ccc3n2C)cc1`, the T/C was 100 % of control (dose: 30.0 mg/kg/injection, schedule: Q04DX003 (ip), vehicle: saline with Tween-80); 87 % of control (dose: 60.0 mg/kg/injection, schedule: Q04DX003 (ip), vehicle: saline with Tween-80); 73 % of control (dose: 120.0 mg/kg/injection, schedule: Q04DX003 (ip), vehicle: saline with Tween-80); 37 % of control (dose: 240.0 mg/kg/injection, schedule: Q04DX003 (ip), vehicle: saline with Tween-80).
As to `S=C(NCNC(=S)c1ccncc1)c1ccncc1`, the T/C by setting is: under setting [1], 420 % of control; under setting [2], 260 % of control; (dose: 600.0 mg/kg/injection, schedule: Q04DX003 (ip), vehicle: saline with Tween-80) 317 % of control.
Take `C/C(=N\NC(=S)N1CC2CCC(CC2)C1)c1cccc(C)n1`: the T/C under setting [9] is 114 % of control and the T/C under setting [10] was 81 % of control.
Turning to `CCCCCC[Se][Se]CCCCCC`, the T/C (dose: 10.0 mg/kg/injection, schedule: Q04DX003 (ip), vehicle: Klucel (hydroxypropylcellulose) (HPC)) is 106 % of control; the T/C (dose: 20.0 mg/kg/injection, schedule: Q04DX003 (ip), vehicle: Klucel (hydroxypropylcellulose) (HPC)) is 38 % of control; the T/C (dose: 40.0 mg/kg/injection, schedule: Q04DX003 (ip), vehicle: Klucel (hydroxypropylcellulose) (HPC)) is 70 % of control; the T/C (dose: 80.0 mg/kg/injection, schedule: Q04DX003 (ip), vehicle: Klucel (hydroxypropylcellulose) (HPC)) was 71 % of control.
For `CC1C(c2ccccc2)OC(N2CCOCC2)C(C)(C)CN1C` (stereo not given), the T/C under setting [1] is 112 % of control and the T/C under setting [2] is 72 % of control.
On to `COc1ccc(C=C(C(=O)CCN(C)C)C(=O)CCN(C)C)cc1`, for which the T/C under setting [8] is 96 % of control and the T/C (dose: 200.0 mg/kg/injection, schedule: Q04DX003 (ip), vehicle: saline) was 101 % of control.
In the case of `C[n+]1c(-c2ccc(NC(=O)c3ccc(C(=O)Nc4ccc(-c5cn6ccccc6[n+]5C)cc4)cc3)cc2)cn2ccccc21`, the T/C is 47 % of control under setting [9] and 49 % of control under setting [10].
For the compound `S=C(N/N=C1/CCCC/C1=N/NC(=S)N1CCOCC1)N1CCOCC1`, the T/C by setting is: (dose: 6.25 mg/kg/injection, schedule: Q04DX003 (ip), vehicle: saline with Tween-80) 71 % of control; under setting [9], 27 % of control; under setting [10], 37 % of control; (dose: 50.0 mg/kg/injection, schedule: Q04DX003 (ip), vehicle: saline with Tween-80) 82 % of control.
In the case of `O=C1C=C(N2CC2)C(=O)C(N2CC2)=C1N1CC1`, the T/C runs as follows: under setting [6], 25 % of control and 29 % of control; (dose: 144.0 micrograms/kg/injection, schedule: Q04DX003 (ip), vehicle: saline + alcohol) -27 % of control; (dose: 240.0 micrograms/kg/injection, schedule: Q04DX003 (ip), vehicle: saline + alcohol) -14 % of control; under setting [7], 6 % of control.
As for `O=C(/C=C/c1cccnc1)/C=C/c1cccnc1`, the T/C (dose: 12.5 mg/kg/injection, schedule: Q04DX003 (ip), vehicle: Klucel (hydroxypropylcellulose) (HPC)) is 91 % of control and the T/C (dose: 100.0 mg/kg/injection, schedule: Q04DX003 (ip), vehicle: Klucel (hydroxypropylcellulose) (HPC)) was 54 % of control.
With `COc1cc2c(cc1OC)-c1c3c(cc4c1[C@@H](C2)N(C)CC4)OCO3`, the T/C runs as follows: (dose: 37.5 mg/kg/injection, schedule: Q04DX003 (ip), vehicle: distilled water + Tween-80 + alcohol) 89 % of control; (dose: 75.0 mg/kg/injection, schedule: Q04DX003 (ip), vehicle: distilled water + Tween-80 + alcohol) 84 % of control; (dose: 150.0 mg/kg/injection, schedule: Q04DX003 (ip), vehicle: distilled water + Tween-80 + alcohol) 21 % of control.
Turning to `COc1cccc2c1C(=O)c1c(O)c3c(c(O)c1C2=O)C[C@](O)(C(=O)CO)CC3OC1CC(N)C(OC2CCCCO2)C(C)O1` (stereo not given in full), the T/C is 35 % of control (dose: 1.88 mg/kg/injection, schedule: Q04DX003 (ip), vehicle: water); 74 % of control (dose: 3.75 mg/kg/injection, schedule: Q04DX003 (ip), vehicle: water); 28 % of control (dose: 7.5 mg/kg/injection, schedule: Q04DX003 (ip), vehicle: water); 4 % of control (dose: 15.0 mg/kg/injection, schedule: Q04DX003 (ip), vehicle: water).
Regarding `[Cl][Pt][Cl].[NH-]C(CO)C(=O)O` (stereo not given), the T/C was 93 % of control (dose: 37.5 mg/kg/injection, schedule: Q04DX003 (ip), vehicle: water); 247 % of control (dose: 75.0 mg/kg/injection, schedule: Q04DX003 (ip), vehicle: water); 63 % of control (dose: 150.0 mg/kg/injection, schedule: Q04DX003 (ip), vehicle: water).
As to `Cc1nc2c(N)cc(Cl)cc2[nH]1`, the T/C (dose: 100.0 mg/kg/injection, schedule: Q04DX003 (ip), vehicle: saline with Tween-80) is 89 % of control and the T/C (dose: 200.0 mg/kg/injection, schedule: Q04DX003 (ip), vehicle: saline with Tween-80) was 95 % of control.
